Test results from patent US20150204850A1, “PRODUCTION OF BETA-CELLS” (Max-Planck-Gesellschaft zur Förderung der. Wissenschaften …, priority 2009, published 2015).
Marks after values point to notes of the source that are not given here.

Tests used:
POE::Glucre animals = assay: Insulin challenge (overall responsiveness to insulin); assay type: in vivo, mouse; conditions: older POE::Glucre animals; Actrapid insulin 0.75 mU/g subcutaneously
Protocol: Note that 600 mg of glucose per dl of blood correspond to the maximal value detectable by our glucose monitoring system. […] However, due to the experimental conditions used, we noticed a disaggregating of the islets (Table 7) and therefore turned to an in vivo approach: (C) To determine the overall responsiveness to insulin, an insulin challenge was performed in animals of the indicated genotypes and ages. […] (D-F) Aiming to also assay β-cell function, we treated POE::Glucre animals of the indicated genotypes and ages with two insulin secretagogues, arginine and liraglutide (a long-acting GLP-1 analog—Novo Nordisk—Denmark).
Animals of the indicated genotypes were injected subcutaneously with Actrapid insulin (0.75 mU/g—Novo Nordisk—Denmark), intravenously with arginine (5 mg—Sigma) or subcutaneously with liraglutide (200 micrograms per kg—Novo Nordisk—Denmark). Following insulin challenge, blood glucose levels were measured as described in the main manuscript. Next to arginine challenge, at each time point, one animal per genotype was sacrificed immediately for serum insulin level determination using RIA (Linco). Lastly, in the case of liraglutide, the latter was injected 30 min prior to glucose challenge. At each time point, three animals per genotype were sacrificed immediately for serum glucose and insulin level determination.

POE::Glucre pancreata [1] = assay: Real time RT-PCR of selected transcripts in pancreata of POE::Glucre mice supplemented with glucagon; assay type: in vivo, mouse; conditions: 6 week old POE::Glucre + glucagon for 3 weeks; WT/POE pancreata set at 100%
Protocol: (§1) To assess the effects of glucagon on islet size, mice were injected intraperitoneally twice daily (every 12h) with 5 μg of glucagon and sacrificed after 3 weeks of treatment. For STZ-mediated diabetes induction, a freshly prepared 50 mg/ml solution in 0.1 mol/l sodium citrate, pH 4.5 was injected intraperitoneally (200 mg/kg). Lentivirus production and injection were performed as described previously (Xu et al., 2008). Lastly, BrdU was injected intraperitoneally (200 μl of 100 μl/ml) and was detected by immunohistochemistry (Invitrogen).
RNA isolation (RNAeasy, Qiagen) and cDNA synthesis (Supercript choice system, Invitrogen) were performed according to the manufacturer's instructions. cDNA synthesis for analyses aiming to detect Pax4 transcripts was performed using a mixture of eight Pax4-derived (and β-actin-derived) antisense oligonucleotides instead of the provided oligo-dT primers (FIG. 13B).
Quantitative RT-PCR were carried out using the QuantiTect SYBR Green RT-PCR Kit (Qiagen) and validated primers (Qiagen) according to the manufacturer's instructions. The PCR reactions and detection were performed on a Mastercycler® ep realplex cycler using GAPDH and HPRT1 as internal controls for normalization purposes.
The expression of the indicated genes was assayed in pancreatic tissues of POE::Glucre, POE::Glucre supplemented with glucagon, and glucagon-receptor mutant (GluR-KO) mice using age-matched tissues of WT and POE pancreata as reference (values set at 100%). POE::Glucre, but also GluR-KO pancreata display increased contents of Ngn3 and Reg3b transcripts. Additionally, an augmentation in β-cell-specific transcripts is outlined in POE::Glucre, whereas the expression of the α-cell marker genes is reduced Importantly, concomitantly with a significant decrease in Ngn3 and Reg3b transcript contents, a reduction in insulin- and glucagon-producing cell numbers (and associated marker genes) is evidenced in POE::Glucre animals supplemented with glucagon. All values are statistically significant (P<0.05, n>2) versus POE/WT.

POE::Glucre pancreata [2] = assay: Immunohistochemical cell counts and islet size in pancreata of mice supplemented with glucagon; assay type: in vivo, mouse
Protocol: We therefore hypothesized that the latter might be driven by the hypoglucagonemia resulting from the α- to β-cell conversion. To test this theory, we injected 3-week-old POE::Pdx1Cre, POE::Glucre, POE::Pax6cre, and control animals twice daily with glucagon during three weeks.
as §1
Tissues were fixed in 4% PFA overnight at 4° C., embedded in paraffin and 8-μm sections applied to slides. These sections were assayed as described previously (Collombat et al. 2003). In order to perform co-immunofluorescence, the GFP signal was bleached when necessary, as described (Collombat et al., 2007). The primary antibodies used were the following: mouse monoclonal anti-insulin, anti-glucagon ( 1/1000 —Sigma), anti-Ngn3 ( 1/2000—1F25A1B3, BCBC Antibody Core), anti-c-Myc ( 1/100 —Abcam); guinea pig anti-insulin, anti-glucagon ( 1/1000—Sigma); rabbit anti-somatostatin ( 1/600—Dako), anti-PP ( 1/200—Dako), anti-Nkx6.1 ( 1/3000), anti-Nkx2.2 ( 1/1000—kindly provided by T. Jessell), anti-Pax6 ( 1/500 Chemicon), anti-Pax4 ( 1/500), and anti-Arx ( 1/1000); chicken anti-β-galactosidase ( 1/500 Biozol); goat anti-Ngn3 ( 1/1000—kindly provided by M. Sander). The secondary antibodies ( 1/1000—Molecular Probes) used were: 594-alexa anti-mouse; 488-alexa anti-mouse; 594-alexa anti-rabbit; 488-alexa anti-rabbit; 594-alexa anti-guinea pig; 488-alexa anti-guinea pig. Pictures were processed using confocal microscopy. For quantification purpose, stained cells were counted manually on every tenth section and the count reported to the pancreatic area estimated in silico.
The counts in cells positive for the indicated genes are reported per square centimetre of pancreatic tissues of POE::Glucre, POE::Glucre supplemented with glucagon, and glucagon-receptor mutant (GluR-KO) mice using age-matched tissues of WT/POE pancreata as reference. It is worth noticing that, in animals ectopically expressing Pax4 in glucagon expression domains or in GluR-KO mice, Ngn3-producing cells reemerge (note for the latter that due to the bias introduced by the high background, this count should be considered as indicative). […] In the latter case, a concomitant decrease in BrdU-labelled proliferating cell numbers is highlighted (BrdU provided at 5 weeks of age, examination a week later). (n>2, **P<0.01, *P<0.05 using the POE/WT genotype as reference; ^##P<0.01, ^#P<0.05 using the POE::Glucre genotype as reference).

isolated islets = assay: Perifusion analysis of isolated islets (insulin release); assay type: cell-based, mouse; conditions: 20 mM glucose + glucagon
From the text: […] (2003). […] Obviously, a decrease in digestion time/collagenase concentrations would not have permitted proper islet isolation. We anyway perifused the islets and observed no difference in islet function of younger animals for all the genotypes analyzed. However, in older counterparts, we did detect a decrease in the glucose-stimulated insulin release, albeit not significant. It should be noticed that such a lack of significance might be attributed to the loss of oversized islets induced by experimental conditions.

β-cells = assay: STZ-mediated diabetes induction (β-cell depletion); assay type: in vivo, mouse; conditions: mice, STZ 200 mg/kg intraperitoneally, single dose
From the text: We reasoned that such cells might be capable of replacing lost β-cells in diabetic mice. […] A higher mortality rate was found among animals older than 4 weeks, as compared to younger mice. It should be noticed that these animals were already hyperglycemic and weakened prior to STZ injection due to a combined insulin insensitivity and β-cell failure to optimally respond to a glucose challenge (FIG. 24). […] Ten days post-injection, only few insulin-producing cells were detected (FIG. 7F-G). […]
We reasoned that the continuous β-cell neogenesis observed in double-transgenic animals might be able to rescue experimentally-induced diabetes. Therefore, the function of the newly formed β-cells was assessed in diabetic mice with more than 95% β-cell loss following STZ treatment. […] Also under these conditions, clusters of glucagon^+ cells were detected at one pole of the islets, adjacent to duct structures, such cells subsequently adopting a β-cell phenotype.
To assess the effects of glucagon on islet size, mice were injected intraperitoneally twice daily (every 12h) with 5 μg of glucagon and sacrificed after 3 weeks of treatment. […] Lastly, BrdU was injected intraperitoneally (200 μl of 100 μl/ml) and was detected by immunohistochemistry (Invitrogen).

POE::Glucre β-cells = assay: Arginine and liraglutide tolerance tests; assay type: in vivo, mouse; conditions: 10-week old POE::Glucre; arginine 5 mg intravenously; lower than in younger animals
[3] = 6 week old POE::Glucre + glucagon

In the case of “insulin: Actrapid insulin, Novo Nordisk, Denmark”, the “Glycemia after insulin challenge” value (POE::Glucre animals) is reported as “did not observe any significant modification of the glycemia”.
With glucagon the “Arx transcript (real time RT-PCR)” value (POE::Glucre pancreata [1]) was 15 ± 10%, the “Glucagon transcript (real time RT-PCR)” value (POE::Glucre pancreata [1]) was 18 ± 9% and the “Insulin transcript (real time RT-PCR)” value (POE::Glucre pancreata [1]) was 285 ± 52%. For the same compound, the “Ngn3 transcript (real time RT-PCR)” value (POE::Glucre pancreata [1]) was 475 ± 81%, the “Nkx6.1 transcript (real time RT-PCR)” value (POE::Glucre pancreata [1]) was 183 ± 20% and the “Pax4 transcript (real time RT-PCR)” value (POE::Glucre pancreata [1]) was 555 ± 91%. The “Pdx1 transcript (real time RT-PCR)” value (POE::Glucre pancreata [1]) was 279 ± 62%, the “Reg3b transcript (real time RT-PCR)” value (POE::Glucre pancreata [1]) was 434 ± 63% and the Islet size (POE::Glucre pancreata [2]; 3-week-old POE::Pdx1Cre, POE::Glucre, POE::Pax6cre mice injected twice daily with glucagon during three weeks, vs controls) was “significant decrease in islet size”. The Glucagon-positive cell count (POE::Glucre pancreata [2]; [3]) was 6 ± 4**^# per square centimetre, the Insulin-positive cell count (POE::Glucre pancreata [2]; [3]) was 394 ± 132**^## per square centimetre and the “BrdU (1 week) labelled cell count” value (POE::Glucre pancreata [2]; 6 week old POE::Glucre + glucagon, BrdU at 5 weeks of age, examination a week later) was 28 ± 7^# per square centimetre. For the same compound, the Ngn3-positive cell count (POE::Glucre pancreata [2]; 6 week old POE::Glucre + glucagon, count indicative (high background)) was 38 ± 11^# per square centimetre, the “% of insulin released reported to the total insulin cell content/2 h” value (“% of insulin released reported” below) (isolated islets; 3-week old Control islets) was 8.9 ± 1.1% and the “% of insulin released reported” value (isolated islets; 3-week old POE::Glucre islets) was 10.6%. The “% of insulin released reported” value (isolated islets; 12-week old Control islets) was 9.5 ± 0.8% and the “% of insulin released reported” value (isolated islets; 12-week old POE::Glucre islets) was 6.6 ± 1.2%.
For `CN(N=O)C(=O)N[C@H]1C(O)O[C@H](CO)[C@@H](O)[C@@H]1O` (mixture of isomers) [STZ, streptozotocin], the “β-cell loss following STZ treatment” value (β-cells) was “more than 95%”.
With `N=C(N)NCCC[C@H](N)C(=O)O` [arginine] the “Insulin secretion after arginine challenge” value (POE::Glucre β-cells) was “able to elicit an insulin secretion”.
